In patent US20110178070A1, “PI3K/mTOR INHIBITORS” (TAKEDA PHARMACEUTICAL COMPANY LIMITED, priority 2008, published 2011):

Molecular target: mTOR (Homo sapiens, UniProt P42345)
Assay: Z-Lyte biochemical assay, inhibition of mTOR (Example A);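 further: synthetic Ser/Thr peptide with coumarin–fluorescein FRET pair, phosphorylation protects from protease cleavage, coumarin/fluorescein emission ratio after 400 nm excitation, 1 h kinase reaction, 10-point 3-fold titrations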
Details: IC50 (nM) mTOR, Table 1; 10 μM ATP
Experimental: The inhibitory property of a compound relative to mTOR catalysis was determined by using the Z-Lyte™ biochemical assay conducted by Invitrogen Corporation (Madison, Wis.), which employs a fluorescence-based, coupled-enzyme format and is based on the differential sensitivity of phosphorylated and non-phosphorylated peptides to proteolytic cleavage. The peptide substrate is labeled with two fluorophores—one at each end—that make up a FRET pair.
In the primary reaction, the kinase transfers the gamma-phosphate of ATP to a single tyrosine, serine or threonine residue in a synthetic FRET-peptide. In the secondary reaction, a site-specific protease recognizes and cleaves non-phosphorylated FRET-peptides. Phosphorylation of FRET-peptides suppresses cleavage by the Development Reagent. Cleavage disrupts FRET between the donor (i.e., coumarin) and acceptor (i.e., fluorescein) fluorophores on the FRET-peptide, whereas uncleaved, phosphorylated FRET-peptides maintain FRET. A ratio metric method, which calculates the ratio (the Emission Ratio) of donor emission to acceptor emission after excitation of the donor fluorophore at 400 nm, is used to quantitate reaction progress, as shown in the equation below.
A significant benefit of this ratio metric method for quantitating reaction progress is the elimination of well-to-well variations in FRET-peptide concentration and signal intensities. […] Both cleaved and uncleaved FRET-peptides contribute to the fluorescence signals and therefore to the Emission Ratio. The extent of phosphorylation of the FRET-peptide can be calculated from the Emission Ratio.
Recombinant human mTOR enzyme (amino acids 1360-2549), GST-tagged, expressed in and purified from insect cells (Invitrogen Corp. Cat. #PV4753; also known as FRAP1) was used for the assay. The 2×FRAP1 (mTOR)/Ser/Thr 11 Peptide Mixture (Invitrogen Corp.) was prepared in buffer containing 50 mM HEPES pH 7.5, 0.01% BRIJ-35, 10 mM MnCl2, 1 mM EGTA, 2 mM DTT, and 0.02% NaN3. The final 10 μL Kinase Reaction consisted of 7.2-58.1 ng FRAP1 (mTOR) and 2 μM Ser/Thr 11 Peptide in buffer containing 50 mM HEPES pH 7.5, 0.01% BRIJ-35, 5 mM MgCl2, 5 mM MnCl2, 1 mM EGTA, 1 mM DTT, and 0.01% NaN3.
Test compounds are screened in 1% DMSO (final) in the well. For 10 point titrations, 3-fold serial dilutions are conducted from the starting concentration. The Ser/Thr 11 Peptide/Kinase Mixture was diluted to a 2× working concentration in buffer containing 50 mM HEPES pH 7.5, 0.01% BRIJ-35, 10 mM MnCl2, 1 mM EGTA, 2 mM DTT, and 0.02% NaN3. The ATP solution was diluted to a 4× working concentration in buffer containing 50 mM HEPES pH 7.5, 0.01% BRIJ-35, 10 mM MgCl2, and 1 mM EGTA.
After the 1 hour Kinase Reaction incubation, 5 μL of a 1:16 dilution of Development Reagent B was added, and the development reaction was allowed to proceed for an additional 1 hour at room temperature. The assay plate was then read on a fluorescence plate reader and the data analyzed as outlined above.
IC50 values were calculated by non-linear least squares curve fitting using XLfit from IDBS to fit the results to model number 205 (sigmoidal dose-response model).

Chain of mTOR (P42345 1360-2549): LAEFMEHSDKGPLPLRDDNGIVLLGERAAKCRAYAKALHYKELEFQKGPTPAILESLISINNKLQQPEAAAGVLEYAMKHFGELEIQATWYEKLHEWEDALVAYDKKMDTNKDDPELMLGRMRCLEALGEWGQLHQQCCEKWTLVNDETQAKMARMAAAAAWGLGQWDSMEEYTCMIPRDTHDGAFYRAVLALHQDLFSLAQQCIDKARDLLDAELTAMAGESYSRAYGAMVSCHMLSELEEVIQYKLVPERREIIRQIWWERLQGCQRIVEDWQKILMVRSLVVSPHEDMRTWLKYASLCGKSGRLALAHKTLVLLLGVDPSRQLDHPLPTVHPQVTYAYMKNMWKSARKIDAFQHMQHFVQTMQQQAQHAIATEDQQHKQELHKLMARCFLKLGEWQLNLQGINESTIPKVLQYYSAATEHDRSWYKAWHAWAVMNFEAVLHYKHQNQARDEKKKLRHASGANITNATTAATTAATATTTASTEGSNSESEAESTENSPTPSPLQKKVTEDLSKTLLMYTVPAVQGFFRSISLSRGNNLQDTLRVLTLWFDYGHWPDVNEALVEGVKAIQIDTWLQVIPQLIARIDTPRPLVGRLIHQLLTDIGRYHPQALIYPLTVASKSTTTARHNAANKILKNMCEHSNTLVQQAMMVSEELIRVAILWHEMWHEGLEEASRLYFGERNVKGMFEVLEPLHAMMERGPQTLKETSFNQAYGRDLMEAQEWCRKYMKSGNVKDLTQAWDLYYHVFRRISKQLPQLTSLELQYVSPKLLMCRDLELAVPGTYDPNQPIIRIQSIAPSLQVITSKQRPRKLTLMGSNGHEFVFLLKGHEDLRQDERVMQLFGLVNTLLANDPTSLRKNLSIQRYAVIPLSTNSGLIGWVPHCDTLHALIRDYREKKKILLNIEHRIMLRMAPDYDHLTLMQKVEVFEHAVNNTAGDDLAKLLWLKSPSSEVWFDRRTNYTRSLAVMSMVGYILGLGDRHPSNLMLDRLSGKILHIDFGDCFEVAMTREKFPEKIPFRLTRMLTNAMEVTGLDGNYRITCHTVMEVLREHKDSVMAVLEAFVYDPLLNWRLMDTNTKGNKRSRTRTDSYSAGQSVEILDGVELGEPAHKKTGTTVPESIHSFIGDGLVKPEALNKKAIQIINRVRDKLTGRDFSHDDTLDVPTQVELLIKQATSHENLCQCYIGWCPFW

CONC(=O)c1cccc(-c2ccc3nc(NC(C)=O)sc3n2)c1 [Example 27, 3-(2-Acetamidothiazolo[5,4-b]pyridin-5-yl)-N-methoxybenzamide]
IC50: > 1000 nM

CC(=O)Nc1nc2ccc(-c3ccc4[nH]ncc4c3)nc2s1 [Example 3, N-(5-(1H-Indazol-5-yl)thiazolo[5,4-b]pyridin-2-yl)acetamide]
IC50: 100 to 1000 nM

CC(=O)Nc1nc2ccc(-c3ccc(N)cc3)cc2s1 [Example 13, N-(6-(4-Aminophenyl)benzo[d]thiazol-2-yl)acetamide]
IC50: > 1000 nM

CC(=O)Nc1nc2ccc(-c3ccc(C#N)nc3)nc2s1 [Example 23, N-(5-(6-Cyanopyridin-3-yl)thiazolo[5,4-b]pyridin-2-yl)acetamide]
IC50: 100 to 1000 nM

CC(=O)Nc1nc2ccc(-c3cnc(N)cn3)cc2s1 [Example 20, N-(6-(5-Aminopyrazin-2-yl)benzo[d]thiazol-2-yl)acetamide]
IC50: 100 to 1000 nM

CC(=O)Nc1nc2ccc(-c3ccncc3)nc2s1 [Example 33, N-(5-(Pyridin-4-yl)thiazolo[5,4-b]pyridin-2-yl)acetamide]
IC50: > 1000 nM

CNC(=O)c1ccc(-c2ccc3nc(NC(C)=O)sc3n2)cc1 [Example 35, 4-(2-Acetamidothiazolo[5,4-b]pyridin-5-yl)-N-methylbenzamide]
IC50: < 100 nM

CCS(=O)(=O)Nc1cc(-c2ccc3nc(NC(C)=O)sc3n2)cnc1Cl [Example 47, N-(5-(6-Chloro-5-(ethylsulfonamido)pyridin-3-yl)thiazolo[5,4-b]pyridin-2-yl)acetamide]
IC50: < 100 nM

CONC(=O)c1ccc(-c2ccc3nc(NC(C)=O)sc3n2)cc1 [Example 30, 4-(2-Acetamidothiazolo[5,4-b]pyridin-5-yl)-N-methoxybenzamide]
IC50: 100 to 1000 nM

CC(=O)Nc1nc2ccc(-c3ccccc3N)nc2s1 [Example 34, N-(5-(2-Aminophenyl)thiazolo[5,4-b]pyridin-2-yl)acetamide]
IC50: > 1000 nM

CC(=O)Nc1nc2ccc(-c3cnc(Cl)c(NS(C)(=O)=O)c3)nc2s1 [Example 8, N-(5-(6-Chloro-5-(methylsulfonamido)pyridin-3-yl)thiazolo[5,4-b]pyridin-2-yl)acetamide]
IC50: < 100 nM

CC(=O)Nc1nc2ccc(-c3cnc(Cl)c(NS(C)(=O)=O)c3)cc2s1 [Example 48, N-(6-(6-Chloro-5-(methylsulfonamido)pyridin-3-yl)benzo[d]thiazol-2-yl)acetamide]
IC50: < 100 nM

CC(=O)Nc1ccc(-c2ccc3nc(NC(C)=O)sc3n2)cc1 [Example 36, N-(5-(4-Acetamidophenyl)thiazolo[5,4-b]pyridin-2-yl)acetamide]
IC50: 100 to 1000 nM

CC(=O)Nc1nc2ccc(-c3ccc4[nH]cc(C(N)=O)c4c3)cc2s1 [Example 17, 5-(2-Acetamidobenzo[d]thiazol-6-yl)-1H-indole-3-carboxamide]
IC50: > 1000 nM

CC(=O)Nc1nc2ccc(-c3ccc(C(=O)NC4CC4)cc3)nc2s1 [Example 37, 4-(2-Acetamidothiazolo[5,4-b]pyridin-5-yl)-N-cyclopropylbenzamide]
IC50: 100 to 1000 nM

CC(=O)Nc1nc2ccc(-c3ccc4nccn4c3)nc2s1 [Example 22, N-(5-(Imidazo[1,2-a]pyridin-6-yl)thiazolo[5,4-b]pyridin-2-yl)acetamide]
IC50: 100 to 1000 nM

CC(=O)Nc1nc2ccc(-c3cnc4[nH]ccc4c3)nc2s1 [Example 24, N-(5-(1H-Pyrrolo[2,3-b]pyridin-5-yl)thiazolo[5,4-b]pyridin-2-yl)acetamide]
IC50: < 100 nM

CC(=O)Nc1ccc(-c2ccc3nc(NC(C)=O)sc3n2)cn1 [Example 4, N-(5-(6-Acetamidopyridin-3-yl)thiazolo[5,4-b]pyridin-2-yl)acetamide]
IC50: 100 to 1000 nM

CC(=O)Nc1nc2ccc(-c3ccc4[nH]cc(C=O)c4c3)cc2s1 [Example 15, N-(6-(3-Formyl-1H-indol-5-yl)benzo[d]thiazol-2-yl)acetamide]
IC50: < 100 nM

CC(=O)Nc1nc2ccc(-c3ccc4[nH]ccc4c3)nc2s1 [Example 2, N-(5-(1H-Indol-5-yl)thiazolo[5,4-b]pyridin-2-yl)acetamide]
IC50: 100 to 1000 nM
